# Patent publication US20230049952A1, “METHODS AND COMPOUNDS FOR RESTORING MUTANT P53 FUNCTION” (PMV Pharmaceuticals, Inc., priority 2020, published 2023)
# Tested on: p53 signaling pathway in MT373 tumors
# Assay: MT373 syngeneic sarcoma model: mouse p53 signaling pathway profiling panel
# Assay type: in vivo
structure (smiles),measurement,setting,value
"CCn1c(C#CCNc2ccccc2)cc2cc(CNC3CCN(C)CC3)ccc21 [Compound 1, 1-Anilino-3-{1-ethyl-5-[(1-methyl-4-piperidylamino)methyl]-1H-indol-2-yl}-2-propyne]",Il6 fold increase or percent reduction vs vehicle control,"150 mg/kg BIDx1, 8 h",42.72 fold or %
same,Jun fold increase or percent reduction vs vehicle control,"150 mg/kg BIDx1, 8 h",32.68 fold or %
same,Kras fold increase or percent reduction vs vehicle control,"150 mg/kg BIDx1, 8 h",8.77 fold or %
same,Lig4 fold increase or percent reduction vs vehicle control,"150 mg/kg BIDx1, 8 h",9.59 fold or %
same,Mdm2 fold increase or percent reduction vs vehicle control,"150 mg/kg BIDx1, 8 h",7.29 fold or %
same,Mdm4 fold increase or percent reduction vs vehicle control,"150 mg/kg BIDx1, 8 h",0.59 fold or %
same,Mel1 fold increase or percent reduction vs vehicle control,"150 mg/kg BIDx1, 8 h",3.87 fold or %
same,Mlh1 fold increase or percent reduction vs vehicle control,"150 mg/kg BIDx1, 8 h",28.64 fold or %
same,Msh2 fold increase or percent reduction vs vehicle control,"150 mg/kg BIDx1, 8 h",35.13 fold or %
same,Myod1 fold increase or percent reduction vs vehicle control,"150 mg/kg BIDx1, 8 h",14.90 fold or %
same,Nf1 fold increase or percent reduction vs vehicle control,"150 mg/kg BIDx1, 8 h",17.13 fold or %
same,Nfkb1 fold increase or percent reduction vs vehicle control,"150 mg/kg BIDx1, 8 h",6.02 fold or %
same,Pcna fold increase or percent reduction vs vehicle control,"150 mg/kg BIDx1, 8 h",44.75 fold or %
same,Pmaip1 fold increase or percent reduction vs vehicle control,"150 mg/kg BIDx1, 8 h",2.33 fold or %
same,Ppm1d fold increase or percent reduction vs vehicle control,"150 mg/kg BIDx1, 8 h",1.44 fold or %
same,Prc1 fold increase or percent reduction vs vehicle control,"150 mg/kg BIDx1, 8 h",17.14 fold or %
same,Prkca fold increase or percent reduction vs vehicle control,"150 mg/kg BIDx1, 8 h",27.03 fold or %
same,Pten fold increase or percent reduction vs vehicle control,"150 mg/kg BIDx1, 8 h",14.47 fold or %
same,Pttg1 fold increase or percent reduction vs vehicle control,"150 mg/kg BIDx1, 8 h",3.91 fold or %
same,Rb1 fold increase or percent reduction vs vehicle control,"150 mg/kg BIDx1, 8 h",1.08 fold or %
same,Rela fold increase or percent reduction vs vehicle control,"150 mg/kg BIDx1, 8 h",5.08 fold or %
same,Rprm fold increase or percent reduction vs vehicle control,"150 mg/kg BIDx1, 8 h",1.81 fold or %
same,Serpinb5 fold increase or percent reduction vs vehicle control,"150 mg/kg BIDx1, 8 h",2.43 fold or %
same,Sesn2 fold increase or percent reduction vs vehicle control,"150 mg/kg BIDx1, 8 h",2.88 fold or %
same,Sfn fold increase or percent reduction vs vehicle control,"150 mg/kg BIDx1, 8 h",15.09 fold or %
same,Sirt1 fold increase or percent reduction vs vehicle control,"150 mg/kg BIDx1, 8 h",24.95 fold or %
same,Stat1 fold increase or percent reduction vs vehicle control,"150 mg/kg BIDx1, 8 h",1.23 fold or %
same,Tnf fold increase or percent reduction vs vehicle control,"150 mg/kg BIDx1, 8 h",1.57 fold or %
same,Traf1 fold increase or percent reduction vs vehicle control,"150 mg/kg BIDx1, 8 h",1.4 fold or %
same,Trp53bp2 fold increase or percent reduction vs vehicle control,"150 mg/kg BIDx1, 8 h",29.54 fold or %
same,Trp53 fold increase or percent reduction vs vehicle control,"150 mg/kg BIDx1, 8 h",16.49 fold or %
same,Apex1 fold increase or percent reduction vs vehicle control,"150 mg/kg BIDx1, 24 h",29.90 fold or %
same,Atm fold increase or percent reduction vs vehicle control,"150 mg/kg BIDx1, 24 h",24.13 fold or %
same,Atr fold increase or percent reduction vs vehicle control,"150 mg/kg BIDx1, 24 h",14.58 fold or %
same,Bag1 fold increase or percent reduction vs vehicle control,"150 mg/kg BIDx1, 24 h",32.76 fold or %
same,Bax fold increase or percent reduction vs vehicle control,"150 mg/kg BIDx1, 24 h",1.61 fold or %
same,Bbc3 fold increase or percent reduction vs vehicle control,"150 mg/kg BIDx1, 24 h",2.27 fold or %
same,Bcl2 fold increase or percent reduction vs vehicle control,"150 mg/kg BIDx1, 24 h",20.93 fold or %
same,Bid fold increase or percent reduction vs vehicle control,"150 mg/kg BIDx1, 24 h",1.08 fold or %
same,Birc5 fold increase or percent reduction vs vehicle control,"150 mg/kg BIDx1, 24 h",53.57 fold or %
same,Brca1 fold increase or percent reduction vs vehicle control,"150 mg/kg BIDx1, 24 h",44.99 fold or %
same,Brca2 fold increase or percent reduction vs vehicle control,"150 mg/kg BIDx1, 24 h",34.71 fold or %
same,Btg2 fold increase or percent reduction vs vehicle control,"150 mg/kg BIDx1, 24 h",1.06 fold or %
same,Casp2 fold increase or percent reduction vs vehicle control,"150 mg/kg BIDx1, 24 h",28.04 fold or %
same,Ccnb1 fold increase or percent reduction vs vehicle control,"150 mg/kg BIDx1, 24 h",69.21 fold or %
same,Ccne1 fold increase or percent reduction vs vehicle control,"150 mg/kg BIDx1, 24 h",38.46 fold or %
same,Ccng1 fold increase or percent reduction vs vehicle control,"150 mg/kg BIDx1, 24 h",6.84 fold or %
same,Ccnh fold increase or percent reduction vs vehicle control,"150 mg/kg BIDx1, 24 h",16.52 fold or %
same,Cdc25a fold increase or percent reduction vs vehicle control,"150 mg/kg BIDx1, 24 h",41.75 fold or %
same,Cdk1 fold increase or percent reduction vs vehicle control,"150 mg/kg BIDx1, 24 h",64.58 fold or %
same,Cdk4 fold increase or percent reduction vs vehicle control,"150 mg/kg BIDx1, 24 h",55.89 fold or %
same,Cdkn1a fold increase or percent reduction vs vehicle control,"150 mg/kg BIDx1, 24 h",10.93 fold or %
same,Cdkn2a fold increase or percent reduction vs vehicle control,"150 mg/kg BIDx1, 24 h",36.93 fold or %
same,Chek1 fold increase or percent reduction vs vehicle control,"150 mg/kg BIDx1, 24 h",58.77 fold or %
same,Cradd fold increase or percent reduction vs vehicle control,"150 mg/kg BIDx1, 24 h",18.77 fold or %
same,Cul9 fold increase or percent reduction vs vehicle control,"150 mg/kg BIDx1, 24 h",1.05 fold or %
same,Dapk1 fold increase or percent reduction vs vehicle control,"150 mg/kg BIDx1, 24 h",1.14 fold or %
same,Dnmt1 fold increase or percent reduction vs vehicle control,"150 mg/kg BIDx1, 24 h",22.85 fold or %
same,E2f1 fold increase or percent reduction vs vehicle control,"150 mg/kg BIDx1, 24 h",26.25 fold or %
same,E2f3 fold increase or percent reduction vs vehicle control,"150 mg/kg BIDx1, 24 h",39.40 fold or %
same,Egfr fold increase or percent reduction vs vehicle control,"150 mg/kg BIDx1, 24 h",47.37 fold or %
same,Egr1 fold increase or percent reduction vs vehicle control,"150 mg/kg BIDx1, 24 h",66.33 fold or %
same,Ep300 fold increase or percent reduction vs vehicle control,"150 mg/kg BIDx1, 24 h",1.15 fold or %
same,Ercc1 fold increase or percent reduction vs vehicle control,"150 mg/kg BIDx1, 24 h",34.86 fold or %
same,Esr1 fold increase or percent reduction vs vehicle control,"150 mg/kg BIDx1, 24 h",1.24 fold or %
same,Fadd fold increase or percent reduction vs vehicle control,"150 mg/kg BIDx1, 24 h",8.43 fold or %
same,Fas fold increase or percent reduction vs vehicle control,"150 mg/kg BIDx1, 24 h",1.94 fold or %
same,Fasl fold increase or percent reduction vs vehicle control,"150 mg/kg BIDx1, 24 h",6.77 fold or %
same,Foxo3 fold increase or percent reduction vs vehicle control,"150 mg/kg BIDx1, 24 h",1.20 fold or %
same,Gadd45a fold increase or percent reduction vs vehicle control,"150 mg/kg BIDx1, 24 h",38.66 fold or %
same,Hif1a fold increase or percent reduction vs vehicle control,"150 mg/kg BIDx1, 24 h",10.42 fold or %
same,Il6 fold increase or percent reduction vs vehicle control,"150 mg/kg BIDx1, 24 h",85.31 fold or %
same,Jun fold increase or percent reduction vs vehicle control,"150 mg/kg BIDx1, 24 h",46.70 fold or %
same,Kras fold increase or percent reduction vs vehicle control,"150 mg/kg BIDx1, 24 h",9.19 fold or %
same,Lig4 fold increase or percent reduction vs vehicle control,"150 mg/kg BIDx1, 24 h",1.02 fold or %
same,Mdm2 fold increase or percent reduction vs vehicle control,"150 mg/kg BIDx1, 24 h",5.96 fold or %
same,Mdm4 fold increase or percent reduction vs vehicle control,"150 mg/kg BIDx1, 24 h",1.22 fold or %
same,Mel1 fold increase or percent reduction vs vehicle control,"150 mg/kg BIDx1, 24 h",9.59 fold or %
same,Mlh1 fold increase or percent reduction vs vehicle control,"150 mg/kg BIDx1, 24 h",10.59 fold or %
same,Msh2 fold increase or percent reduction vs vehicle control,"150 mg/kg BIDx1, 24 h",26.97 fold or %
same,Myod1 fold increase or percent reduction vs vehicle control,"150 mg/kg BIDx1, 24 h",3.09 fold or %
same,Nf1 fold increase or percent reduction vs vehicle control,"150 mg/kg BIDx1, 24 h",12.02 fold or %
same,Nfkb1 fold increase or percent reduction vs vehicle control,"150 mg/kg BIDx1, 24 h",5.42 fold or %
